These results are taken from patent publication US9018374B2, “Crystal of amide compound” (Takeda Pharmaceutical Company Limited, priority 2010, dated 2015).

Each structure is given as a SMILES string. “Also recorded” adds a separate entry of the source.

Data set [1] is described as follows: Moisture adsorption analysis. The format is physicochemical. The note with it: 25° C., hydrochloride. As for the experimental part:
Moisture adsorption of type A crystal and type B crystal was automatically analyzed by VTI Symmetrical Gravimetric Analyzer in step-isothermal mode (SGA-100 for type A crystal, SGA-CX for type B crystal). Samples were exposed various relative humidities (RH) at 25° C. The weight of the samples at each relative humidity was recorded after equilibrium (weight change of less than 0.02% within 10 min).

Data set [2] in a line: Slurry interconversion. The format is physicochemical. The note with it: for crystal form 1 day later: 20 mg in 0.2 mL isopropyl alcohol, slurry at ambient temperature, powder X-ray diffraction, hydrochloride. As for the experimental part: Type A crystal, type B crystal, and a mixture (1:1) of type A crystal and type B crystal (each 20 mg) were measured in vials, and isopropyl alcohol (0.2 mL) was added to give suspension containing excess solids remaining therein. The vial was sealed, and shaken on a slurry wheel at ambient temperature for 1 day at steady rotation. Thereafter, the solids were collected by filtration.

The nature of data set [3]: Dissolution test. To be noted: room temperature (25° C.). As for the experimental part: To type A crystal and type B crystal (each 50 mg) were added 2-butanone, ethyl acetate, toluene, n-heptane and tert-butylmethylether (each 5 mL), and the dissolution property was measured using a powder suspension (25° C., 2 hr). The suspension was centrifuged, the supernatant was filtered with a filter (pore size 0.22 μm), and the solvent was evaporated from the filtrate under a nitrogen atmosphere. The residue obtained by evaporation was dissolved in a mixed solution of 50 mM aqueous ammonium acetate solution/acetonitrile (1:1), and measured by HPLC.

For the molecule `COCCCCn1c(C(=O)N(CC(C)C)[C@@H]2CNC[C@H](C(=O)N3CCOCC3)C2)nc2ccccc21.Cl` [type A crystal, 1-(4-methoxybutyl)-N-(2-methylpropyl)-N-[(3S,5R)-5-(morpholin-4-ylcarbonyl)piperidin-3-yl]-1H-benzimidazole-2-carboxamide hydrochloride, reference compound], the “level (%) of weight change” value is −0.1% in data set [1] (relative humidity 30% RH), 0.0% in data set [1] (relative humidity 50% RH) and 7.6% in data set [1] (relative humidity 70% RH). For the same molecule, in data set [2], the “crystal form 1 day later” value was “convert to type B crystal”.

On to `COCCCCn1c(C(=O)N(CC(C)C)[C@@H]2CNC[C@H](C(=O)N3CCOCC3)C2)nc2ccccc21.Cl` [type B crystal, 1-(4-methoxybutyl)-N-(2-methylpropyl)-N-[(3S,5R)-5-(morpholin-4-ylcarbonyl)piperidin-3-yl]-1H-benzimidazole-2-carboxamide hydrochloride], for which the “thermodynamic stability as compared to type A crystal (from dissolution test)” value in data set [3] is given as “thermodynamically stable”. The “level (%) of weight change” value in data set [1] (relative humidity 30% RH) is given as 0.0%; in data set [1] (relative humidity 50% RH), 0.5%; in data set [1] (relative humidity 70% RH) it was 0.9%. Also, the “crystal form 1 day later” value in data set [2] is “no change; also recorded: type B”. Also, the “thermodynamic stability as compared to type A crystal (from slurry experiment)” value in data set [2] (ambient temperature) is “thermodynamically stable”.
